Results published in US20240139190A1, “NOVEL ANTIPARASITIC COMPOUNDS AND METHODS” (The Board of Regents of The University of Texas System, priority 2019, published 2024).
pEC50: −log10 of the molar value. Entries after “also recorded” stand apart in the source; their conditions may differ.

What was measured:
[1] = test system: intracellular L. amazonensis amastigotes; test: Intramacrophage bioluminescence assay with luciferase-expressing L. amazonensis; assay type: cell-based, Leishmania amazonensis; settings: Leishmania amazonensis, RAW264.7, 72 h, read-out: EC50^72 h against intracellular L. amazonensis amastigotes
Description: Intracellular EC50s were estimated with L. amazonensisluc parasites. Briefly, RAW 264.7 cells or BM primary Mϕs were starved overnight, then infected with metacyclic promastigotes at a Multiplicity of Infection (MOI) of 15 and incubated for another 24 h at 37° C. The plates containing infected RAW 264.7 cells/BM primary M4s were washed five times with serum-free DMEM. Serially diluted compounds were added, and plates were incubated at 37° C. for 72 hrs. Bioluminescence signal was measured as described above.
RAW 264.7 cells were used to perform a bioluminescence assay with transgenic luciferase-expressing L. amazonensis (FIG. 1C).

purified porcine tubulin [2] = biological target: T1, purified porcine tubulin (Sus scrofa, UniProt P02550+P02554); test: Tubulin polymerization turbidity assay, mammalian tubulin; assay type: biochemical
T1 construct: purchased Cytoskeleton, Inc. T240
Description: Tubulin polymerization assays were performed in 96-well half-area microplates (Costar) in a final volume of 100 μL. Briefly, Leishmanial or porcine tubulin (>99% pure, Cat. #T240, Cytoskeleton, Inc.) in 50 μL volume was pre-treated with drugs on ice for 5 minutes before adding 50 μL ice cold buffer, to provide a final concentration of 3 mg/ml tubulin in 80 mM PIPES pH 6.9, 2 mM MgCl2, 0.5 mM EGTA, 1 mM GTP, and 1% DMSO unless specified otherwise. The absorbance at 340 nm was recorded in a Synergy H1 microplate reader (BioTek) for up to 45 min at 37° C. (porcine tubulin) or 30° C. (L. tarentolae tubulin).
(§1) To determine the selectivity of MMV676477, purified porcine tubulin was exposed to a serial dilution of the drug (0 to 25 μM) and absorbance was measured at 340 nm over time. […] To ensure that the absorbance seen at 340 nm reflected microtubule formation and not precipitation, a fluorescent microtubule assembly assay was employed.

[3] = test system: L. amazonensis promastigotes and amastigotes; test: Microscopic analysis of cell division; assay type: cell-based, Leishmania amazonensis; settings: 48 h at EC50^72 h
Description: (§2) Promastigotes or amastigotes were treated with the indicated compound concentrations and allowed to adhere to poly-L-lysine coated plates. All cells were fixed with 4% paraformaldehyde and permeabilized/blocked with 0.01% Triton X-100 and 2% BSA in PBS. Promastigotes and amastigotes were incubated with mouse anti-gp46 or anti-p8, respectively at 1:50 or 1:1000 and rat anti-alpha-tubulin antibody at 1:1000. Samples were then probed with A568 anti-mouse and […] secondary antibodies (Molecular Probes). DNA was labeled with Hoescht. Samples were visualized on a Zeiss LSM 880 Inverted confocal Airyscan microscope at 63×; full Z-thicknesses through parasites were obtained. […] For microscopic analysis of mitotic arrest, at least 200 parasites were analyzed per condition per experiment after 48 hrs incubation at compounds' EC50, and the average plus standard error for three experiments was calculated. Representative images were selected from the maximal intensity projections and linearly processed in Adobe Photoshop CS6.
The molecular target of MMV676477 was investigated.

[4] = test system: cellular tubulin of L. amazonensis; test: Polymerized vs. unpolymerized tubulin in parasites (differential centrifugation, western blot); assay type: cell-based, Leishmania amazonensis; settings: 24 h at EC50^72 h, densitometry
Text: (§3) One reason why MMV676477 might affect parasite cell division is that, like paclitaxel, it might affect microtubule polymerization, either directly or indirectly. The degree to which MMV676477 affected microtubules polymerization in cells was examined. […] Centrifugation of these extracts allowed separation of insoluble polymeric (pellet) and soluble dimeric (supernatant) tubulin. […] The intensity of α-tubulin staining was examined by normalizing it to the intensity of a membrane protein (gp46 for promastigotes in FIG. 4D; p8 for amastigotes in FIG. 4E).

[5] = test system: L. amazonensis promastigotes and amastigotes; test: Tubulin intensity by confocal immunofluorescence microscopy; assay type: cell-based, Leishmania amazonensis; settings: 24 h at EC50^72 h
Description: as §2, §3

[6] = biological target: purified L. tarentolae tubulin (Leishmania tarentolae, UniProt A0A640KCM0+A0A640KQN0); test: Chemical cross-linking competition with SW223022 probe; assay type: binding; settings: 100-fold excess of competitor
[7] = test system: L. donovani axenic amastigotes; test: alamarBlue assay, L. donovani axenic amastigotes; assay type: cell-based, Leishmania donovani
Description: (§4) For other parasites, L. donovani, strain MHOM/SD/62/1S-C12D, was grown as previously described. Plasmodium falciparum parasites of the 3D7 strain were cultured in RPMI 1640 medium supplemented with 37.5 mM HEPES, 10 mM D-glucose, 2 mM L-glutamine, 100 μM hypoxanthine, 25 μg/mL gentamicin, 4% (v/v) human serum and 0.25% (v/v) Albumax II, at a 2% haematocrit in an atmosphere of 1% 02, 3% CO2 and 96% N2. Staging and parasitemia of the in vitro culture were assessed by light microscopy of Giemsa-stained thin blood smears.
Leishmania amazonensis axenic amastigotes (100 μL, 2×10^6 cells/mL) were added to 96-multiwell plates containing 100 μL of amastigote culture medium with an appropriate compound dilution series. 0.1% DMSO (no drug) served as a positive control (100%), and 5 μM amphotericin B served as a negative growth control (0%). Only internal wells were used to minimize edge effects from evaporation. […] Similarly, the cytotoxicity of each compound was determined against RAW 264.7 cells and HepG2 cell lines, following 72 h incubation at 37° C. […]
MMV676477 was tested against several other parasites: the axenic amastigotes of Leishmania donovani and Leishmania tarentolae, blood-stage Plasmodium falciparum, and Trypanosoma brucei. The compound's activity was measured using alamarBlue®, Malaria SYBR green I fluorescence (MSF) and CellTiter-Glo® luminescent assays. […]

[8] = test system: blood-stage P. falciparum (3D7 strain); test: Malaria SYBR green I fluorescence (MSF) assay; assay type: cell-based, Plasmodium falciparum
Description: as §4
Compounds were tested against the blood-stage Trypanosoma brucei (48 hr endpoint) and intra-erythrocytic asexual stages Plasmodium falciparum (3D7) using CellTiter-Glo® luminescent and Malaria SYBR green I fluorescence (MSF) assays, respectively. Similar methodology will be used for future experiments.
MMV676477 was tested against several other parasites: the axenic amastigotes of Leishmania donovani and Leishmania tarentolae, blood-stage Plasmodium falciparum, and Trypanosoma brucei. The compound's activity was measured using alamarBlue®, Malaria SYBR green I fluorescence (MSF) and CellTiter-Glo® luminescent assays. […] In addition, MMV676477 has also been recently reported as having potent activity against Neospora caninum, Cryptosporidium parvum, Toxoplasma gondii, and Entamoeba histolytica.

purified porcine tubulin [9] = biological target: T1, purified porcine tubulin; test: Fluorescent microtubule assembly assay; assay type: biochemical; settings: mammalian tubulin, fluorescence micrographs
Description: as §1

CCc1c(C)nc(-n2nc(C)cc2NC(=O)c2ccccc2SC)[nH]c1=O [MMV676477, N-(1-(5-Ethyl-4-methyl-6-oxo-1,6-dihydropyrimidin-2-yl)-3-methyl-1H-pyrazol-5-yl)-2-(methylthio)benzamide]
pEC50 [1]: 6.29 | pEC50 (purified porcine tubulin [2]; 3 mg/ml tubulin, 1% DMSO, A340): 4.96 | tubulin polymerization activity with detergent (purified porcine tubulin [2]; 0.01% Triton-X treatment): not affected | Maximum absorbance (A340, 10% DMSO) (purified porcine tubulin [2]; mammalian tubulin): 0.4 | percentage of L. amazonensis undergoing cell division [3]: significant two-fold increase | proportion of cellular polymeric tubulin [4]: significantly increased the proportion of cellular polymeric tubulin | tubulin intensity over control (DMSO-treated) [5]: significant two-fold increase in tubulin intensity | competition with SW223022 probe (fluorescent tubulin band) [6]: almost completely absent | activity against L. donovani axenic amastigotes (in words) [7]: broad activity | activity against Plasmodium falciparum (in words) [8]: nanomolar-range cytocidal potency; also recorded: broad activity; also recorded: nanomolar concentrations | microtubules formed vs control (purified porcine tubulin [9]): many more microtubules were formed
